Measured values: PMC7673538 (PLoS Biology, 2020)

Tested on: EV-A71
Test: microbe, parasite or virus in culture
Type: cell-based, enterovirus A71
Details: Enterovirus A, EVA71, HeLa R19, read-out: EC50 Average

SMILES	EC50
COc1ccc(N(Cc2ccc(C(F)(F)F)cc2)C(=O)c2ccco2)cc1 [Compound 19e, N-(4-Methoxyphenyl)-N-(4-(trifluoromethyl)benzyl)furan-2-carboxamide]	4.07 µM

Same assay, conditions: Enterovirus A, EVA71, HeLa R19, read-out: EC50 EV-A71

SMILES	EC50
COc1ccc(N(Cc2ccc(C(F)(F)F)cc2)C(=O)c2ccco2)cc1 [Compound 19e, N-(4-Methoxyphenyl)-N-(4-(trifluoromethyl)benzyl)furan-2-carboxamide]	4.08 ± 0.99 µM

Same assay, conditions: Enterovirus A, EVA71, HeLa R19, read-out: EC50 Exp1

SMILES	EC50
COc1ccc(N(Cc2ccc(C(F)(F)F)cc2)C(=O)c2ccco2)cc1 [Compound 19e, N-(4-Methoxyphenyl)-N-(4-(trifluoromethyl)benzyl)furan-2-carboxamide]	3.09 µM

Same assay, conditions: Enterovirus A, EVA71, HeLa R19, read-out: EC50 Exp2

SMILES	EC50
COc1ccc(N(Cc2ccc(C(F)(F)F)cc2)C(=O)c2ccco2)cc1 [Compound 19e, N-(4-Methoxyphenyl)-N-(4-(trifluoromethyl)benzyl)furan-2-carboxamide]	5.06 µM

Tested on: CV-B3
Test: microbe, parasite or virus in culture
Type: cell-based, coxsackievirus B3
Details: not given

SMILES	effect of the substitution on antiviral activity against CV-B3 (in words)
COc1ccc(N(Cc2ccc(C(F)(F)F)cc2)C(=O)c2ccco2)cc1 [Compound 19e, N-(4-Methoxyphenyl)-N-(4-(trifluoromethyl)benzyl)furan-2-carboxamide]	only marginally affected antiviral activity

Same assay, conditions: Enterovirus B, CVB3, HeLa R19, read-out: CV-B3 EC50 Average

SMILES	EC50
COc1ccc(N(Cc2ccc(C(F)(F)F)cc2)C(=O)c2ccco2)cc1 [Compound 19e, N-(4-Methoxyphenyl)-N-(4-(trifluoromethyl)benzyl)furan-2-carboxamide]	860 nM

Same assay, conditions: Enterovirus B, CVB3, HeLa R19, read-out: CV-B3 Exp 1 EC50

SMILES	EC50
COc1ccc(N(Cc2ccc(C(F)(F)F)cc2)C(=O)c2ccco2)cc1 [Compound 19e, N-(4-Methoxyphenyl)-N-(4-(trifluoromethyl)benzyl)furan-2-carboxamide]	730 nM

Same assay, conditions: Enterovirus B, CVB3, HeLa R19, read-out: CV-B3 Exp2 EC50

SMILES	EC50
COc1ccc(N(Cc2ccc(C(F)(F)F)cc2)C(=O)c2ccco2)cc1 [Compound 19e, N-(4-Methoxyphenyl)-N-(4-(trifluoromethyl)benzyl)furan-2-carboxamide]	980 nM

Same assay, conditions: Enterovirus B, CVB3, HeLa R19, read-out: EC50 HelaR19 Average

SMILES	EC50
COc1ccc(N(Cc2ccc(C(F)(F)F)cc2)C(=O)c2ccco2)cc1 [Compound 19e, N-(4-Methoxyphenyl)-N-(4-(trifluoromethyl)benzyl)furan-2-carboxamide]	930 nM

Same assay, conditions: Enterovirus B, CVB3, HeLa R19, read-out: Exp 2 EC50 HelaR19

SMILES	EC50
COc1ccc(N(Cc2ccc(C(F)(F)F)cc2)C(=O)c2ccco2)cc1 [Compound 19e, N-(4-Methoxyphenyl)-N-(4-(trifluoromethyl)benzyl)furan-2-carboxamide]	990 nM

Tested on: PV-1
Test: microbe, parasite or virus in culture
Type: cell-based, poliovirus 1
Details: Enterovirus C, HeLa R19, read-out: EC50 PV-1

SMILES	EC50
COc1ccc(N(Cc2ccc(C(F)(F)F)cc2)C(=O)c2ccco2)cc1 [Compound 19e, N-(4-Methoxyphenyl)-N-(4-(trifluoromethyl)benzyl)furan-2-carboxamide]	> 30 µM

Tested on: CV-A24
Test: microbe, parasite or virus in culture
Type: cell-based, coxsackievirus A24
Details: Enterovirus C, CVA24, HeLa R19, read-out: EC50 CV-A24

SMILES	EC50
COc1ccc(N(Cc2ccc(C(F)(F)F)cc2)C(=O)c2ccco2)cc1 [Compound 19e, N-(4-Methoxyphenyl)-N-(4-(trifluoromethyl)benzyl)furan-2-carboxamide]	> 30 µM

Tested on: EV-D68
Test: microbe, parasite or virus in culture
Type: cell-based, enterovirus D68
Details: Enterovirus D, EVD68, HeLa R19, read-out: EC50 EV-D68

SMILES	EC50
COc1ccc(N(Cc2ccc(C(F)(F)F)cc2)C(=O)c2ccco2)cc1 [Compound 19e, N-(4-Methoxyphenyl)-N-(4-(trifluoromethyl)benzyl)furan-2-carboxamide]	4.47 ± 0.26 µM

Same assay, conditions: Enterovirus D, EVD68, HeLa R19, read-out: EC50 Exp1

SMILES	EC50
COc1ccc(N(Cc2ccc(C(F)(F)F)cc2)C(=O)c2ccco2)cc1 [Compound 19e, N-(4-Methoxyphenyl)-N-(4-(trifluoromethyl)benzyl)furan-2-carboxamide]	4.72 µM

Same assay, conditions: Enterovirus D, EVD68, HeLa R19, read-out: EC50 Exp2

SMILES	EC50
COc1ccc(N(Cc2ccc(C(F)(F)F)cc2)C(=O)c2ccco2)cc1 [Compound 19e, N-(4-Methoxyphenyl)-N-(4-(trifluoromethyl)benzyl)furan-2-carboxamide]	4.21 µM

Tested on: HRV-A2
Test: microbe, parasite or virus in culture
Type: cell-based, human rhinovirus
Details: Human rhinovirus sp., HRVA2, HeLa R19, read-out: EC50 HRV-A2

SMILES	EC50
COc1ccc(N(Cc2ccc(C(F)(F)F)cc2)C(=O)c2ccco2)cc1 [Compound 19e, N-(4-Methoxyphenyl)-N-(4-(trifluoromethyl)benzyl)furan-2-carboxamide]	> 30 µM

Tested on: HRV-B14
Test: microbe, parasite or virus in culture
Type: cell-based, human rhinovirus
Details: Human rhinovirus sp., HRVB14, HeLa R19, read-out: EC50 Exp1

SMILES	EC50
COc1ccc(N(Cc2ccc(C(F)(F)F)cc2)C(=O)c2ccco2)cc1 [Compound 19e, N-(4-Methoxyphenyl)-N-(4-(trifluoromethyl)benzyl)furan-2-carboxamide]	7.9 µM

Same assay, conditions: Human rhinovirus sp., HRVB14, HeLa R19, read-out: EC50 Exp2

SMILES	EC50
COc1ccc(N(Cc2ccc(C(F)(F)F)cc2)C(=O)c2ccco2)cc1 [Compound 19e, N-(4-Methoxyphenyl)-N-(4-(trifluoromethyl)benzyl)furan-2-carboxamide]	8.86 µM

Same assay, conditions: Human rhinovirus sp., HRVB14, HeLa R19, read-out: EC50 HRV-B14

SMILES	EC50
COc1ccc(N(Cc2ccc(C(F)(F)F)cc2)C(=O)c2ccco2)cc1 [Compound 19e, N-(4-Methoxyphenyl)-N-(4-(trifluoromethyl)benzyl)furan-2-carboxamide]	8.38 ± 0.48 µM

Tested on: CV-B3
Test: microbe, parasite or virus in culture
Type: cell-based, coxsackievirus B3
Details: Enterovirus B, CVB3, HAP1, read-out: EC50 Hap1 Average

SMILES	EC50
COc1ccc(N(Cc2ccc(C(F)(F)F)cc2)C(=O)c2ccco2)cc1 [Compound 19e, N-(4-Methoxyphenyl)-N-(4-(trifluoromethyl)benzyl)furan-2-carboxamide]	2850 nM

Same assay, conditions: Enterovirus B, CVB3, HAP1, read-out: Exp 1 EC50 Hap1

SMILES	EC50
COc1ccc(N(Cc2ccc(C(F)(F)F)cc2)C(=O)c2ccco2)cc1 [Compound 19e, N-(4-Methoxyphenyl)-N-(4-(trifluoromethyl)benzyl)furan-2-carboxamide]	2140 nM

Same assay, conditions: Enterovirus B, CVB3, HAP1, read-out: Exp 2 EC50 Hap1

SMILES	EC50
COc1ccc(N(Cc2ccc(C(F)(F)F)cc2)C(=O)c2ccco2)cc1 [Compound 19e, N-(4-Methoxyphenyl)-N-(4-(trifluoromethyl)benzyl)furan-2-carboxamide]	3560 nM

Tested on: CV-B3
Test: microbe, parasite or virus in culture
Type: cell-based, coxsackievirus B3
Details: Enterovirus B, CVB3, BGM, read-out: EC50 BGM Average

SMILES	EC50
COc1ccc(N(Cc2ccc(C(F)(F)F)cc2)C(=O)c2ccco2)cc1 [Compound 19e, N-(4-Methoxyphenyl)-N-(4-(trifluoromethyl)benzyl)furan-2-carboxamide]	2410 nM

Same assay, conditions: Enterovirus B, CVB3, BGM, read-out: Exp 1 EC50 BGM

SMILES	EC50
COc1ccc(N(Cc2ccc(C(F)(F)F)cc2)C(=O)c2ccco2)cc1 [Compound 19e, N-(4-Methoxyphenyl)-N-(4-(trifluoromethyl)benzyl)furan-2-carboxamide]	2050 nM

Same assay, conditions: Enterovirus B, CVB3, BGM, read-out: Exp 2 EC50 BGM

SMILES	EC50
COc1ccc(N(Cc2ccc(C(F)(F)F)cc2)C(=O)c2ccco2)cc1 [Compound 19e, N-(4-Methoxyphenyl)-N-(4-(trifluoromethyl)benzyl)furan-2-carboxamide]	2760 nM

Tested on: HeLa R19 cells
Test: not given
Details: human, monkey

SMILES	cytotoxicity (in words)
COc1ccc(N(Cc2ccc(C(F)(F)F)cc2)C(=O)c2ccco2)cc1 [Compound 19e, N-(4-Methoxyphenyl)-N-(4-(trifluoromethyl)benzyl)furan-2-carboxamide]	cytotoxicity in a similar range as the parental compound 1

Tested on: not listed separately
Test: in vitro
Details: human, CC50 Average

SMILES	CC50
COc1ccc(N(Cc2ccc(C(F)(F)F)cc2)C(=O)c2ccco2)cc1 [Compound 19e, N-(4-Methoxyphenyl)-N-(4-(trifluoromethyl)benzyl)furan-2-carboxamide]	> 30 µM

Same assay, conditions: human, CC50 HelaR19 Average

SMILES	CC50
COc1ccc(N(Cc2ccc(C(F)(F)F)cc2)C(=O)c2ccco2)cc1 [Compound 19e, N-(4-Methoxyphenyl)-N-(4-(trifluoromethyl)benzyl)furan-2-carboxamide]	54 µM

Same assay, conditions: human, Exp 1 CC50

SMILES	CC50
COc1ccc(N(Cc2ccc(C(F)(F)F)cc2)C(=O)c2ccco2)cc1 [Compound 19e, N-(4-Methoxyphenyl)-N-(4-(trifluoromethyl)benzyl)furan-2-carboxamide]	> 30 µM

Same assay, conditions: human, Exp 1 CC50 HelaR19

SMILES	CC50
COc1ccc(N(Cc2ccc(C(F)(F)F)cc2)C(=O)c2ccco2)cc1 [Compound 19e, N-(4-Methoxyphenyl)-N-(4-(trifluoromethyl)benzyl)furan-2-carboxamide]	53 µM

Same assay, conditions: human, Exp2 CC50

SMILES	CC50
COc1ccc(N(Cc2ccc(C(F)(F)F)cc2)C(=O)c2ccco2)cc1 [Compound 19e, N-(4-Methoxyphenyl)-N-(4-(trifluoromethyl)benzyl)furan-2-carboxamide]	> 30 µM

Same assay, conditions: human, Exp 2 CC50 HelaR19

SMILES	CC50
COc1ccc(N(Cc2ccc(C(F)(F)F)cc2)C(=O)c2ccco2)cc1 [Compound 19e, N-(4-Methoxyphenyl)-N-(4-(trifluoromethyl)benzyl)furan-2-carboxamide]	55 µM

Tested on: not listed separately
Test: in vitro
Details: human, CC50 Hap1 Average

SMILES	CC50
COc1ccc(N(Cc2ccc(C(F)(F)F)cc2)C(=O)c2ccco2)cc1 [Compound 19e, N-(4-Methoxyphenyl)-N-(4-(trifluoromethyl)benzyl)furan-2-carboxamide]	54.9 µM

Same assay, conditions: human, Exp 1 CC50 Hap1

SMILES	CC50
COc1ccc(N(Cc2ccc(C(F)(F)F)cc2)C(=O)c2ccco2)cc1 [Compound 19e, N-(4-Methoxyphenyl)-N-(4-(trifluoromethyl)benzyl)furan-2-carboxamide]	55.3 µM

Same assay, conditions: human, Exp 2 CC50 Hap1

SMILES	CC50
COc1ccc(N(Cc2ccc(C(F)(F)F)cc2)C(=O)c2ccco2)cc1 [Compound 19e, N-(4-Methoxyphenyl)-N-(4-(trifluoromethyl)benzyl)furan-2-carboxamide]	54.5 µM

Tested on: not listed separately
Test: in vitro
Details: monkey, CC50 BGM Average

SMILES	CC50
COc1ccc(N(Cc2ccc(C(F)(F)F)cc2)C(=O)c2ccco2)cc1 [Compound 19e, N-(4-Methoxyphenyl)-N-(4-(trifluoromethyl)benzyl)furan-2-carboxamide]	55.9 µM

Same assay, conditions: monkey, Exp 1 CC50 BGM

SMILES	CC50
COc1ccc(N(Cc2ccc(C(F)(F)F)cc2)C(=O)c2ccco2)cc1 [Compound 19e, N-(4-Methoxyphenyl)-N-(4-(trifluoromethyl)benzyl)furan-2-carboxamide]	55 µM

Same assay, conditions: monkey, Exp 2 CC50 BGM

SMILES	CC50
COc1ccc(N(Cc2ccc(C(F)(F)F)cc2)C(=O)c2ccco2)cc1 [Compound 19e, N-(4-Methoxyphenyl)-N-(4-(trifluoromethyl)benzyl)furan-2-carboxamide]	56.9 µM
